According to patent US20100248365A1, “GANGLIOSIDE BIOSYNTHESIS MODULATORS” (ZACHARON PHARMACEUTICALS, INC., priority 2009, published 2010):

Columns and labels:
Format in all cases: cell-based
[1] = tested on: primary human fibroblasts from Sandhoff patients; test: GM2 storage in gangliosidosis fibroblasts (Sandhoff), GSL analysis by HPLC; conditions: 30 uM, 13 days of treatment
Protocol: (§1) Human gangliosidosis fibroblast cells are obtained e.g., from Coriell Institute for Medical Research (http://ccr.coriell.org). The primary cells are cultured in minimum essential medium (MEM) with 15% fetal bovine serum (FBS) as instructed by the supplier.
(§2) The fibroblast cells are cultured in 6 well plates at a density of 5.0E05/well in MEM, 15% FBS. The cells are treated with compounds at 30 uM on the next day of culture. The non-selective glycolipid inhibitors PDMP and DGNJ, which inhibit glucosylceramide synthase, are used as control. All the treatments are performed in triplicate. The medium is changed every 5 days with fresh compounds added. After 13 days of treatment with compounds, the cells are harvested for GSL analysis. The conditioned medium is removed, the monolayer is washed with PBS and detached with 5 mM EDTA in PBS. An aliquot of the cell suspension is taken for cell viability count using Viacount.
The cells are spun down and the cell pellets are resuspended in water for GSL extraction. The cells are homogenized using a homogenizer at 6500 rpm for 30 seconds twice. Gangliosides are extracted from homogenates by using chloroform:methanol:water (4:8:3) followed by partitioning. The ganglioside containing upper phase is taken and dried down in a SpeedVac.
Purified total GSLs are subjected to endo-glucoceramidase (EGCase II, Sigma) treatment to release free glycans. ˜10 ug protein equivalent GSL is digested with 1 mU EGCaseII in 15 ul incubation buffer containing 50 mM sodium acetate, pH 5.5 and 0.4% TX100. Digestion is performed at 37° C. overnight. Released free glycans are tagged with anthranilic Acid (2-AA, Sigma). A labeling mix is prepared freshly in 4% sodium acetate (NaAc.3H2O) and 2% boric acid/methanol(w/v) by adding 45 mg NaBH3CN first and then adding 30 mg 2AA in a 1 ml solution. 40 ul of this labeling mix is added directly into digestion mix. The labeling is carried out at 80° C. for 45˜60 min. Free labeling reagents are removed by passing the reaction mix through a Discovery DPA-6S (Sigma) column. The DPA-6S column (50 mg) is pre-equilibrated twice with 1 ml acetonitrile (ACN). The reaction mixture is cooled down, 1 ml of 97% ACN is added, and the sample is loaded onto the column. The column is washed with four times with 1 ml of 99% ACN and once with 0.5 ml of 97% ACN. 2AA-glycans are eluted in two time 600 ul water. The eluates are dried down in a SpeedVac and subjected to HPLC analysis.
(§3) Purified 2-AA-labeled oligosaccharides are analyzed by HPLC an method as described by Neville et al. (Anal. Biochem, 2004, 331:275-282). 2-AA-oligosaccharides are separated by NP-HPLC using a 5 μm 4.6×250 mm TSK gel-Amide 80 column (Tosoh) on a Waters Alliance 2690 separation module equipped with a Waters 2475 fluorescence detector set at Exλ360 nm and Emλ425 nm. Solvent A is 80% ACN and 20% 100 mM ammonium acetate (AmAc), pH 3.85. Solvent B is 60% Milli-Q water, 20% ACN and 20% 100 mM AmAc, pH 3.85. The gradient profile is listed below. Glucose unites are determined based on a 2-AA-labeled glucose ladder (Ludger, UK).

NCI-H82 cells = test: Ganglioside profiling of compound-treated NCI-H82 cells (GSL extraction, 2AA labeling, NP-HPLC); conditions: for cellular inhibition of specific ganglioside biosynthesis: NCI-H82 cells, 25, 12 and 6 uM, 96 hours, HPLC peaks; for preferential reduction effect on gangliosides GM3 and GD3: relative to other ganglioside species
Protocol: NCI-H82 cells were cultured in 6 well plates and treated with compounds at a concentration of 25, 12 and 6 uM in triplicates. PDMP (1-Phenyl-2-decanoylamino-3-morpholino-1-propanol, HCl, EMD #513100) at 25, 12, 6 uM and DGNJ (N-(n-Butyl) deoxygalactonojirimycin, EMD #203994) at 50 uM were used as controls. After 96 hours of compounds treatment the cells were harvested for ganglioside profiling. The suspension cells were centrifuged and the pellets washed once with PBS. Cells were resuspended in 1 ml of PBS, 1/100 of cells were taken to check the cell viability (Viacount)) and for glycosphingolipid (GSL) quantitation and normalization. 1/10 of cells were taken for CTB-FACS to check GM1 expression. The remaining cells were subjected to the ganglioside extraction procedure follow the protocol described by R. Schnaar (Methods in Enzymology, 230: 348-370, 1994).
Briefly, the cells were pelleted by centrifugation and resuspended in cold distilled-water. The cell suspension was homogenized with Polytron homogenizer. Glycolipids were extracted with chloroform:methanol:water at 4:8:3 ratio. Glycolipids were partitioned by adding 0.173 volume of water to extracted the supernatant. The upper […] phase (glycolipids) was dried in a vacuum centrifuge (SpeedVac).
Glycans were released from the glycolipids using the enzyme EGCase II (Sigma, Cat #E9030) as described by the manufacture. Released glycans were labeled with 2AA (2-Anthranilic acid, Sigma, Cat #A89804) following the procedures described by D. Neville (Analytical Biochemistry, 331 (2004) 275-282). Non-incorporated 2AA was removed by column chromatography (Discovery DPA-6S). Briefly, the extracted GSLs were digested with EGCase in a 10 ul reaction volume overnight. 40 ul of labeling mix (30 mg/ml 2-AA, 45 mg/ml […] in 4% NaAc and 2% boric acid in methano) were added. The reaction was carried at 80° C. for 45 min. 2AA-labeled glycans were purified by column chromatography (Discovery DPA-6S). The column was preequilibrated with 2×1 ml 97% acetonitrile (ACN) and the sample was loaded by adding 1 ml 97% ACN to the reaction mix. The column was washed 4× with 1 ml 97% ACN and the 2AA-labeled […] were eluted with 2×0.6 ml water. After drying down (SpeedVac), the sample were resuspended and analyzed by normal phase high performance liquid chromatography (NP-HPLC).
Purified 2AA-GSL glycans were separated on NP-HPLC using a 4.6×250 mm TSK Gel-Amide-80 column (Tosoh Bioscience). The chromatography system consisted of a Waters Alliance 2690/5 separation module and an in-line Waters 2475 fluorescence detector set at Exλ360 nm and Emλ425 nm. All chromatography was performed at 30° C. Solvent A was 20% 100 mM ammonium acetate pH3.85, 80% Acetonitrile, solvent B was 20% 100 mM ammonium acetate pH3.85, 20% ACN and 60% Milli-Q water. The gradient was run from 86% A to 54.7% A in 55 min at flow rate 0.8˜1.2 ml/min (Analytical Biochemistry, 331 (2004) 275-282). Chromatography data was processed using Waters Empower software. Glucose units were determined based on a 2AA-labeled glucose oligomer ladder (Ludger). All 2AA-GSL standards were prepared in house and labeled as glucose units.
FIGS. 18-25 illustrate the dose dependent effects on individual gangliosides (individual HPLC peaks) of various compounds as determined according to the methods of Example 5, but with additional and slightly altered concentration levels used for test compound dosing.

[2] = tested on: primary human fibroblasts from Tay-Sachs patients; test: GM2 storage in gangliosidosis fibroblasts (Tay-Sachs), GSL analysis by HPLC; conditions: 30 uM, 13 days of treatment
Protocol: as §1
as §2, with “Viacount. […]” for “Viacount.”
as §3, with “Solvent A is 80% ACN and 20% 100 mM ammonium acetate (AmAc), pH 3.85. Solvent B is 60% Milli-Q water, 20% ACN and 20% 100 mM AmAc, pH 3.85. The gradient profile is listed below.” left out

[3] = NCI-H82 cells, HPLC peak area as % of untreated
[4] = NCI-H82 cells, HPLC peak areas as % of untreated

## CCCCN1C[C@H](O)[C@@H](O)[C@@H](O)[C@H]1CO [DGNJ, N-(n-Butyl) deoxygalactonojirimycin, reference compound]
[1]
  reduction of GM2 storage in primary human fibroblasts from Sandhoff patients: reduction

## CCCCCCCCCC(=O)NC(CN1CCOCC1)C(O)c1ccccc1 (stereo not drawn) [PDMP, 1-Phenyl-2-decanoylamino-3-morpholino-1-propanol, reference compound]
NCI-H82 cells
  cellular inhibition of specific ganglioside biosynthesis: inhibition
[1]
  reduction of GM2 storage in primary human fibroblasts from Sandhoff patients: reduction

## CN(C)c1ccc(-c2nc3c(C(C)(C)C)cc(C(C)(C)C)c(O)c3o2)cc1 [compound 2, 4,6-di-tert-butyl-2-(4-(dimethylamino)phenyl)benzo[d]oxazol-7-ol]
NCI-H82 cells
  cellular inhibition of specific ganglioside biosynthesis: inhibition
NCI-H82 cells; [3]
  dose dependent reduction effect on ganglioside GD1b: dose dependent reduction

## CSc1ccc(-c2ncnn2-c2sc3c(c2C#N)CCCCC3)cc1 [compound 3, 2-(5-(4-(methylthio)phenyl)-1H-1,2,4-triazol-1-yl)-5,6,7,8-tetrahydro-4H-cyclohepta[b]thiophene-3-carbonitrile]
NCI-H82 cells; NCI-H82 cells
  preferential reduction effect on gangliosides GM3 and GD3: preferential reduction
[1]
  reduction of GM2 storage in primary human fibroblasts from Sandhoff patients: reduction

## N#Cc1c(-n2ncnc2-c2ccc(F)cc2)sc2c1CCCCC2 [compound 4, 2-(5-(4-fluorophenyl)-1H-1,2,4-triazol-1-yl)-5,6,7,8-tetrahydro-4H-cyclohepta[b]thiophene-3-carbonitrile]
NCI-H82 cells; [3]
  dose dependent reduction effect on ganglioside GD3: dose dependent reduction
NCI-H82 cells; [4]
  reduction in B series gangliosides relative to A series gangliosides: reduction

## CC(C)(C)c1cc(C(C)(C)C)c2nc(-c3cc(Br)ccc3O)oc2c1O [compound 5, 2-(5-bromo-2-hydroxyphenyl)-4,6-di-tert-butylbenzo[d]oxazol-7-ol]
NCI-H82 cells; [3]
  dose dependent reduction effect on ganglioside GD2: dose dependent reduction
NCI-H82 cells; [4]
  preferential reduction effect on 2 series gangliosides GM2 and GD2 relative to the 3 series gangliosides GM3 and GD3: preferential reduction
[1]
  reduction of GM2 storage in primary human fibroblasts from Sandhoff patients: reduction

## CC1=C(C(=O)Nc2ccccc2)C(c2ccccc2)C(C#N)=C(SCC(=O)NCc2ccccc2)N1 (stereo not drawn) [compound 7, 6-(2-(benzylamino)-2-oxoethylthio)-5-cyano-2-methyl-N,4-diphenyl-1,4-dihydropyridine-3-carboxamide]
[1]
  reduction of GM2 storage in primary human fibroblasts from Sandhoff patients: reduction

## CC(C)CNc1oc(-c2cccs2)nc1C#N [compound 8, 5-(isobutylamino)-2-(thiophen-2-yl)oxazole-4-carbonitrile]
NCI-H82 cells; NCI-H82 cells
  preferential reduction effect on gangliosides GM3 and GD3: preferential reduction
[1]
  reduction of GM2 storage in primary human fibroblasts from Sandhoff patients: reduction

## COc1cc(/C=C/c2ccc3cccc(OCc4ccccc4)c3n2)cc([N+](=O)[O-])c1OC(C)=O [compound 15, (E)-4-(2-(8-(benzyloxy)quinolin-2-yl)vinyl)-2-methoxy-6-nitrophenyl acetate]
NCI-H82 cells
  cellular inhibition of specific ganglioside biosynthesis: inhibition

## Cc1ccc(C=NN2CCN(c3ccc(Cl)cc3)CC2)o1 [compound 17, 4-(4-chlorophenyl)-N-((5-methylfuran-2-yl)methylene)piperazin-1-amine]
NCI-H82 cells
  cellular inhibition of specific ganglioside biosynthesis: inhibition
NCI-H82 cells; [3]
  dose dependent reduction effect on ganglioside GM3: dose dependent reduction
[1]
  reduction of GM2 storage in primary human fibroblasts from Sandhoff patients: reduction

## CC(C)(C)C1=CC(=Nc2ccc(Br)cc2)C=C(C(C)(C)C)C1=O [compound 18, 4-(4-bromophenylimino)-2,6-di-tert-butylcyclohexa-2,5-dienone]
NCI-H82 cells; [3]
  dose dependent reduction effect on ganglioside GM2: dose dependent reduction

## COc1ccc(/C(C)=N/Nc2nc3ccccc3nc2C)cc1OC [compound 19, (E)-2-(2-(1-(3,4-dimethoxyphenyl)ethylidene)hydrazinyl)-3-methylquinoxaline]
NCI-H82 cells; [3]
  dose dependent reduction effect on ganglioside GM1: dose dependent reduction
[1]
  reduction of GM2 storage in primary human fibroblasts from Sandhoff patients: reduction

## COc1cccc(-c2nc3c(C(C)(C)C)cc(C(C)(C)C)c(O)c3o2)c1OC [compound 20, 4,6-di-tert-butyl-2-(2,3-dimethoxyphenyl)benzo[d]oxazol-7-ol]
[1]
  reduction of GM2 storage in primary human fibroblasts from Sandhoff patients: reduction

## Cc1cc(OCC(=O)Nc2ccc(N(C)C)cc2)cc(C)c1Cl [compound 21, 2-(4-chloro-3,5-dimethylphenoxy)-N-(4-(dimethylamino)phenyl)acetamide]
[2]
  reduction of GM2 storage in primary human fibroblasts from Tay-Sachs patients: reduction
